Experiment: Lipophilicity by reversed-phase thin-layer chromatography (RP-TLC), isopropanol-water mobile phase
Type: physicochemical
Settings: for mRM (arithmetic mean of the experimental retention factors RM): RP-18F254s plates, isopropanol 70–90% in water; for RM0 (relative lipophilicity, RM extrapolated to pure water): Soczewinski Wachtmeister equation, isopropanol 70–90%; for PC1(RM): score of first principal component of RM values at isopropanol 70–90%; for b (slope): slope of RM versus isopropanol concentration; for φ0 (chromatographic hydrophobic index): φ0 = RM0/b; for lipophilicity (in words): chromatographic lipophilicity profile / lipophilicity descriptors
Protocol: Lipophilicity was assessed by RP-TLC, using RP-[…] standard silica gel plates (20 × 10 cm) as the stationary phase. An isopropanol:water binary mixture was used as the mobile phase, with different isopropanol concentrations 70%, 75%, 80%, 85%, 90% for thiazolo[3,2-b][1,2,4]triazole (1a–16a) and imidazo[2,1-b][1,3,4]thiadiazole (1b–16b) compounds.
The standard solutions (1 mg/mL) used to investigate the lipophilicity of the synthesized compounds were prepared in dichloromethane (1a–16a compounds) and dimethylsulfoxide (1b–16b compounds). From the obtained solutions, 2 µL was applied manually on the chromatographic plates, at 15 mm from the baseline and 5 mm from the edges of the plate at a spot distance of 12 mm. This procedure was repeated three times. The chromatographic plate upward elution was performed in a chromatographic chamber previously saturated for 30 min with mobile phase, at normal atmospheric pressure and room temperature. The migration distance of the eluent was 80 mm. The chromatographic plates were visually inspected under UV light at λ = 254 nm to identify the compounds. In order to minimize possible experimental errors, three measurements were performed for each mobile phase. The retention factors (Rf) were calculated as the average of three determinations in each case.
Based on the Rf values, a variety of parameters can be determined to estimate the lipophilicity of the compounds. The isocratic retention factor (RM) was determined using the Bate–Smith and Westall equation [34]:RM = log(1/Rf − 1) where Rf = x/y and x = the migration distance of the compound, and y = the migration distance of the solvent front.
There is usually a linear correlation between the RM values and the concentration of the organic component in the mobile phase. For a better estimation of lipophilicity, RM0 was determined as the extrapolated retention factor, considering pure water as the mobile phase (Soczewinski Wachtmeister equation):RM = RM0 + bC where b is the slope of the curve, which indicates the rate at which the solubility of the compound increases in the mobile phase, C is the concentration of the isopropanol in the mobile phase, and RM0 is the RM of the compound when the concentration of isopropanol is zero (extrapolated value).
To estimate the lipophilicity of the compounds, φ0, representing the chromatographic hydrophobicity index, was also determined. It corresponds to the percentage (by volume) of the organic component in the mobile phase and can be determined according to the following formula:φ0 = RM0/b
In order to assess the lipophilicity of compounds, other more relevant lipophilicity parameters have been used, such as the arithmetic mean of the experimental retention factors (mRM), and the score associated with the first principal component (PC1(RM)) obtained by applying principal component analysis (PCA) to the retention parameters RM [35, 36]. The determination of these parameters eliminates the errors that appear during the extrapolation procedure (when determining RM0) so that the results are more accurate.

mRM (arithmetic mean of the experimental retention factors RM)	RM0 (relative lipophilicity, RM extrapolated to pure water)	PC1(RM)	b (slope)	φ0 (chromatographic hydrophobic index)	lipophilicity (in words)	SMILES
0.166	2.126	−0.701	−0.025	86.79	–	COc1ccc(-c2csc3nc(-c4ccc(Cl)cc4)nn23)cc1 [Compound 8a]
−0.504	1.534	1.694	−0.026	60.16	–	NS(=O)(=O)c1ccc(-c2nc3scc(-c4ccc(C(F)(F)F)cc4)n3n2)cc1 [Compound 15a]
−0.504	1.725	1.693	−0.028	62.28	–	NS(=O)(=O)c1ccc(-c2nn3cc(-c4ccc(C(F)(F)F)cc4)nc3s2)cc1 [Compound 15b]
0.222	1.990	−0.899	−0.022	90.04	high lipophilicity	COc1ccc(-c2nn3cc(-c4ccc(Br)cc4)nc3s2)cc1 [Compound 10b]
0.174	2.507	−0.730	−0.029	85.86	high lipophilicity	Brc1ccc(-c2cn3nc(-c4ccccc4)sc3n2)cc1 [Compound 2b]
0.086	2.468	−0.414	−0.030	82.28	–	FC(F)(F)c1ccc(-c2cn3nc(-c4ccc(Cl)cc4)sc3n2)cc1 [Compound 7b]
−0.416	1.399	1.382	−0.023	62.17	–	NS(=O)(=O)c1ccc(-c2nn3cc(-c4ccc(Br)cc4)nc3s2)cc1 [Compound 14b]
0.239	2.454	−0.960	−0.028	87.94	the most lipophilic compounds	Clc1ccc(-c2nn3cc(-c4ccc(Br)cc4)nc3s2)cc1 [Compound 6b]
0.032	2.217	−0.226	−0.027	81.22	–	COc1ccc(-c2nc3scc(-c4ccc(C(F)(F)F)cc4)n3n2)cc1 [Compound 11a]
−0.435	1.309	1.448	−0.022	60.05	–	NS(=O)(=O)c1ccc(-c2nc3scc(-c4ccc(Br)cc4)n3n2)cc1 [Compound 14a]
0.062	2.410	−0.331	−0.029	81.96	–	FC(F)(F)c1ccc(-c2cn3nc(-c4ccccc4)sc3n2)cc1 [Compound 3b]

Continued, compound first:

SMILES	mRM (arithmetic mean of the experimental retention factors RM)	RM0 (relative lipophilicity, RM extrapolated to pure water)	PC1(RM)	b (slope)	φ0 (chromatographic hydrophobic index)	lipophilicity (in words)
COc1ccc(-c2cn3nc(-c4ccc(Cl)cc4)sc3n2)cc1 [Compound 8b]	0.148	2.183	−0.634	−0.026	84.92	–
FC(F)(F)c1ccc(-c2csc3nc(-c4ccccc4)nn23)cc1 [Compound 3a]	0.065	2.229	−0.341	−0.027	82.54	–
COc1ccc(-c2nn3cc(-c4ccc(C(F)(F)F)cc4)nc3s2)cc1 [Compound 11b]	0.110	1.973	−0.498	−0.023	84.69	–
Brc1ccc(-c2csc3nc(-c4ccccc4)nn23)cc1 [Compound 2a]	0.200	2.130	−0.821	−0.024	88.37	high lipophilicity
Clc1ccc(-c2nc3scc(-c4ccc(Br)cc4)n3n2)cc1 [Compound 6a]	0.324	2.582	−1.267	−0.028	91.57	the most lipophilic compounds
COc1ccc(-c2cn3nc(-c4ccc(S(N)(=O)=O)cc4)sc3n2)cc1 [Compound 16b]	−0.511	0.938	1.723	−0.018	52.12	–
Clc1ccc(-c2nc3scc(-c4ccccc4)n3n2)cc1 [Compound 5a]	0.178	2.131	−0.743	−0.024	87.32	–
COc1ccc(-c2nc3scc(-c4ccc(Br)cc4)n3n2)cc1 [Compound 10a]	0.168	2.132	−0.711	−0.025	87.00	high lipophilicity
FC(F)(F)c1ccc(-c2csc3nc(-c4ccc(Cl)cc4)nn23)cc1 [Compound 7a]	0.186	2.648	−0.775	−0.031	85.99	–
COc1ccc(-c2csc3nc(-c4ccc(S(N)(=O)=O)cc4)nn23)cc1 [Compound 16a]	−0.529	0.864	1.788	−0.017	49.68	–
